How the values were obtained:
Format in all cases: physicochemical
[1] = UV-vis spectra of the E isomers (n → π* absorption maximum); conditions: E isomer, DMSO
Description: The UV-vis spectra of the (E)-X4 derivatives and (E)-X2,m-Y2 are shown in Fig. 3 (analogous spectra for the Z isomers, and deconvoluted spectra are available in the ESI ^†). […] The n → π* transition maximum, λmax, typically followed the order meta-H > –NMe2 > –OMe and ortho-S > Cl > F. It is clear from these experiments that the four ortho X substituents in the X4 derivatives are essential for achieving the deeply red-shifted tails which allows for red/near-IR triggered photo-isomerisation.
All UV-vis spectra were determined in DMSO solution. Extinction coefficients were determined by recording a UV-vis spectra for the E isomer at 10, 20, 30, 40 µM in DMSO respectively. The absorbance at the maximum of the π - π* transition of the E‐isomers was plotted against concentration (Beer-Lambert plot) to determine the molar extinction coefficient ε. For each slow relaxing compound, the E isomer sample at 40 µM was irradiated with the appropriate wavelength of light to generate the photo-stationary state, and another spectrum was run. This spectrum was normalised to units of ε and overlaid with the dark (100% E isomer) spectrum.

[2] = Half-life of the Z → E thermal isomerisation (UV-vis absorbance followed over time after irradiation); conditions: for τ 1/2: 298 K
Method: The E → Z photo-isomerisation and half-life for the Z → E thermal isomerisation was evaluated for all derivatives (Fig. 7 and Table 1, see ESI ^† for original data). To our surprise, the half-lives for (Z)-X2,m-Y2 derivatives were in the order of hours to days for X = F and Cl: the effect of the meta group was not as drastic as anticipated. We typically observed a ∼4 fold decrease in half-life by substituting H with OMe, and a further 3-fold drop from OMe to NMe2 for X = F, Cl and SEt. The nature of the ortho-substituent appeared to be the main influence on τ1/2 (F > Cl ≫ SEt). However, these predictable trends observed for the meta-substitution allow for precise tuning of thermal half-lives. The photo-stationary states (PSSs) of these derivatives ranged from 48–77% Z isomer (Table 1).
All UV-vis spectra were determined in DMSO solution. […]
Lambert plot) to determine the molar extinction coefficient ε. For each slow relaxing compound, the E isomer sample at 40 µM was irradiated with the appropriate wavelength of light to generate the photo-stationary state, and another spectrum was run. This spectrum was normalised to units of ε and overlaid with the dark (100% E isomer) spectrum. […]
Photo-irradiation of liquid samples was carried out using Thorlabs high-power mounted LEDs (models […]
M530L4 (green, 530 nm); in-house custom built set-ups using optical components supplied by Thorlabs, as described in reference 2
Equation y = y0 + A1*exp(-(x-x0)/t1
Figure S327. Lifetime plot of (Z)-Br4-NHBoc based on following UV-Vis absorbance over time after irradiation with 625 nm light (rt, DMSO). Data consistent with NMR half-life data.
Figure S328. Reversible of switching of I4-NHBoc over time after irradiation with 6 60 nm light (rt, DMSO). Dots : raw data, Line: 1st order Exponential Fit […]

[3] = GSH stability study (decay of absorbance in phosphate buffer with 10 mM glutathione); conditions: for t1 of 1st order exponential decay fit (decomposition with GSH): 100 mM phosphate buffer containing 10 mM GSH degassed with N2, 298 K; for τ 1/2 (10 mM GSH): 100 mM phosphate buffer pH 7 containing 10 mM GSH, degassed with N2, 298 K, para substituent CH2NH2·TFA
Method: Finally, the stability of the X4 derivatives were assessed by exposing them to the highest expected intracellular concentration of glutathione (GSH, 10 mM).[28] This was achieved by treating the Boc-protected amino-methyl derivatives X4-NHBoc (X = F, Cl, Br, I, OMe, SMe and SeMe) with TFA to remove the protecting groups. The resulting ammonium-appended AB derivative was dissolved in N2-degassed 100 mM phosphate buffer at pH 7 containing 10 mM GSH, and the changes in absorbance were monitored over an extended period. […] Strong σ-donating substituents are also proposed to aid diazo lone pair protonation, and subsequent GSH attack.[25]
A 10 mM reduced glutathione (GSH) solution was prepared in degassed 100 mM sodium phosphate buffer (at least 15 minutes of N 2 bubbled through the buffer solution prior to addition to GSH). The absorption of the solution was measured periodically at 25 °C, then fitted to a 1 st Order exponential […]
Equation y = y0 + A1*exp(-(x-x0)
Figure S366. Decomposition of F4-CH2NH2•TFA Conditions: 100 mM phosphate buffer containing 10 mM GSH degassed with N2. T = 298 K. […]

[4] = Z → E thermal isomerisation, DMSO

SMILES	λ max of n → π* transition [1] [nm]	τ 1/2 [2, 4]	also measured
CC(C)(C)OC(=O)NCc1ccc(/N=N/c2ccc(CNC(=O)OC(C)(C)C)cc2N2CCCC2)c(N2CCCC2)c1 [(N(CH2)4)2,m-H]	530.2		
COc1cc(CNC(=O)OC(C)(C)C)cc(OC)c1/N=N/c1c(OC)cc(CNC(=O)OC(C)(C)C)cc1OC [(OMe)4-NHBoc]	459.8	197 h	
CCOP(=O)(OCC)c1ccccc1/N=N/c1ccccc1P(=O)(OCC)OCC [(PO(OEt)2)2,m-H]	458.2		
CCSc1cc(CNC(=O)OC(C)(C)C)c(N(C)C)cc1/N=N/c1cc(N(C)C)c(CNC(=O)OC(C)(C)C)cc1SCC [(SEt)2,m-(NMe2)2]	543.0	0.0389 h	
CCSc1cc(CNC(=O)OC(C)(C)C)ccc1/N=N/c1ccc(CNC(=O)OC(C)(C)C)cc1SCC [(SEt)2,m-H2]	431.3	44 m	
CCSc1cc(CNC(=O)OC(C)(C)C)c(OC)cc1/N=N/c1cc(OC)c(CNC(=O)OC(C)(C)C)cc1SCC [(SEt)2,m-OMe2]	464.1	9 m	
CCSc1cc(CNC(=O)OC(C)(C)C)cc(SCC)c1/N=N/c1c(SCC)cc(CNC(=O)OC(C)(C)C)cc1SCC [(SEt)4-NHBoc]	514.5	3 m	
CCOC(=O)c1cc(SCC)c(/N=N/c2c(SCC)cc(C(=O)OCC)cc2SCC)c(SCC)c1 [(SEt)4-ester]	590.0	0.0144 h	
CSc1cccc(SC)c1/N=N/c1c(SC)cccc1SC [(SMe)4-H]	514.2	5 m	
CC(C)Sc1cc(CNC(=O)OC(C)(C)C)cc(SC(C)C)c1/N=N/c1c(SC(C)C)cc(CNC(=O)OC(C)(C)C)cc1SC(C)C [(S^iPr)4-NHBoc]	500.4	3 m	
C[Se]c1cccc([Se]C)c1/N=N/c1c([Se]C)cccc1[Se]C [(SeMe)4-H]	533.9	0.0222 h	
C[Se]c1cc(CNC(=O)OC(C)(C)C)cc([Se]C)c1/N=N/c1c([Se]C)cc(CNC(=O)OC(C)(C)C)cc1[Se]C [(SeMe)4-NHBoc]	534.3	0.00944 h	
CCOC(=O)c1cc([Se]C)c(/N=N/c2c([Se]C)cc(C(=O)OCC)cc2[Se]C)c([Se]C)c1 [(SeMe)4-ester]	588.8	0.000694 h	
C[Te]c1cccc([Te]C)c1/N=N/c1c([Te]C)cccc1[Te]C [(TeMe)4-H]	518.5		
CC(C)(C)OC(=O)NCc1cc(Br)c(N=Nc2c(Br)cc(CNC(=O)OC(C)(C)C)cc2Br)c(Br)c1 [Br4-NHBoc]	465.9	12 h	t1 of exponential fit (lifetime plot of Z isomer) ([2]; after irradiation with 625 nm light, rt, DMSO): 1011 ± 6.62 min
CC(C)(C)OC(=O)NCc1cc(Br)c(N=Nc2c(Br)cc(CNC(=O)OC(C)(C)C)cc2Br)c(Br)c1 [Br]			t1 of 1st order exponential decay fit (decomposition with GSH) [3]: 25249.56343 ± 57.34 s; τ 1/2 (10 mM GSH) [3]: 5 h
CN(C)c1cc(N=Nc2cc(N(C)C)c(CNC(=O)OC(C)(C)C)cc2Cl)c(Cl)cc1CNC(=O)OC(C)(C)C [Cl2,m-(NMe2)2]	432.1	4 h	
CC(C)(C)OC(=O)NCc1ccc(N=Nc2ccc(CNC(=O)OC(C)(C)C)cc2Cl)c(Cl)c1 [Cl2,m-H2]	471.0	34 h	

SMILES	λ max of n → π* transition [1] [nm]	τ 1/2 [2, 4]	also measured
COc1cc(N=Nc2cc(OC)c(CNC(=O)OC(C)(C)C)cc2Cl)c(Cl)cc1CNC(=O)OC(C)(C)C [Cl2,m-OMe2]	475.0	18 h	
CC(C)(C)OC(=O)NCc1cc(Cl)c(N=Nc2c(Cl)cc(CNC(=O)OC(C)(C)C)cc2Cl)c(Cl)c1 [Cl4-NHBoc]	462.6	160 h	
CC(C)(C)OC(=O)NCc1cc(Cl)c(/N=N/c2c(Cl)cc(CNC(=O)OC(C)(C)C)cc2Cl)c(Cl)c1 [Cl]			t1 of 1st order exponential decay fit (decomposition with GSH) [3]: 14241.72745 ± 14.23 s; τ 1/2 (10 mM GSH) [3]: 2.7 h
CN(C)c1cc(N=Nc2cc(N(C)C)c(CNC(=O)OC(C)(C)C)cc2F)c(F)cc1CNC(=O)OC(C)(C)C [F2,m-(NMe2)2]	405.5	16 h	
CC(C)(C)OC(=O)NCc1ccc(N=Nc2ccc(CNC(=O)OC(C)(C)C)cc2F)c(F)c1 [F2,m-H2]	452.5	75 h	
COc1cc(N=Nc2cc(OC)c(CNC(=O)OC(C)(C)C)cc2F)c(F)cc1CNC(=O)OC(C)(C)C [F2,m-OMe2]	387.1	77 h	
CC(C)(C)OC(=O)NCc1cc(F)c(N=Nc2c(F)cc(CNC(=O)OC(C)(C)C)cc2F)c(F)c1 [F4-NHBoc]	454	1.25y	
CC(C)(C)OC(=O)NCc1cc(F)c(/N=N/c2c(F)cc(CNC(=O)OC(C)(C)C)cc2F)c(F)c1 [F]			t1 of 1st order exponential decay fit (decomposition with GSH) [3]: 3748 ± 3.403 s; τ 1/2 (10 mM GSH) [3]: 0.7 h
N#Cc1cc(I)c(/N=N/c2c(I)cc(C#N)cc2I)c(I)c1 [I4-CN]	520.8	0.00556 h	
[N-]=[N+]=NCc1cc(I)c(/N=N/c2c(I)cc(CN=[N+]=[N-])cc2I)c(I)c1 [I4-N3]	514.4	3 m	
CC(C)(C)OC(=O)NCc1cc(I)c(N=Nc2c(I)cc(CNC(=O)OC(C)(C)C)cc2I)c(I)c1 [I4-NHBoc]	514.3	5 m	τ1/2 (Z) ([2]; Z → E thermal isomerisation, printed in Fig. 1 / Fig. 8): 5 min
O=C1c2ccccc2C(=O)N1Cc1cc(I)c(/N=N/c2c(I)cc(CN3C(=O)c4ccccc4C3=O)cc2I)c(I)c1 [I4-NPhth]	511.8	3 m	
CC(=O)OCc1cc(I)c(/N=N/c2c(I)cc(COC(C)=O)cc2I)c(I)c1 [I4-OAc]	501.3	2 m	
OCc1cc(I)c(/N=N/c2c(I)cc(CO)cc2I)c(I)c1 [I4-OH]	500.3		
CCOC(=O)c1cc(I)c(N=Nc2c(I)cc(C(=O)OCC)cc2I)c(I)c1 [I4-ester]	519.6	0.0128 h	
CC(C)(C)OC(=O)NCc1cc(I)c(/N=N/c2c(I)cc(CNC(=O)OC(C)(C)C)cc2I)c(I)c1 [I]			t1 of 1st order exponential decay fit (decomposition with GSH) [3]: 3971 ± 9.47 s; τ 1/2 (10 mM GSH) [3]: 0.7 h
C[Te]c1cccc(F)c1/N=N/c1c(F)cccc1[Te]C [Te2F2-H]	543		

— paper PMC9555560, “Fast relaxing red and near-IR switchable azobenzenes with chalcogen and halogen substituents: periodic trends, tuneable thermal half-lives and chalcogen bonding” (Chemical Science, 2022)
